Where two headings read alike, the source gives them in different places.
Key:
[1] = system: mixed lymphocyte reaction; assay: popliteal lymph node (PLN) test procedure, in vivo mixed lymphocyte reaction; parameters: species or system C3H mice; conditions: for PLN Activity relative to Rapamycin: ratio to rapamycin
Procedure: (§1) Immunosuppressive activity was evaluated in an in vitro standard pharmacological test procedure to measure lymphocyte proliferation (LAF) and in two in vivo standard pharmacological test procedures. The first in vivo procedure was a popliteal lymph node (PLN) test procedure which measured the effect of compounds of this invention on a mixed lymphocyte reaction and the second in vivo procedure evaluated the survival time of a pinch skin graft.
A mixed lymphocyte reaction (MLR) occurs when lymphoid cells from genetically distinct animals are combined in tissue culture. Each stimulates the other to undergo blast transformation which results in increased DNA synthesis that can be quantified by the incorporation of tritiated thymidine. Since stimulating a MLR is a function of disparity at Major Histocompatibility antigens, an in vivo popliteal lymph node (PLN) test procedure closely correlates to host vs. graft disease. Briefly, irradiated spleen cells from BALB/c donors are injected into the right hind foot pad of recipient C3H mice. […] On Day 3 and Day 4, tritiated thymidine is given i.p., b.i.d. On Day 5, the hind popliteal lymph nodes are removed and dissolved, and radioactivity counted. The corresponding left PLN serves as the control for the PLN from the injected hind foot. Percent suppression is calculated using the non-drug treated animals as allogenic control.

[2] = system: cells from the thymus of normal BALB/c mice; assay: comitogen-induced thymocyte proliferation procedure (LAF); assay type: cell-based; conditions: read-out: LAF IC50
Procedure: as §1
The comitogen-induced thymocyte proliferation procedure (LAF) was used as an in vitro measure of the immunosuppressive effects of representative compounds. Briefly, cells from the thymus of normal BALB/c mice are cultured for 72 hours with PHA and IL-1 and pulsed with tritiated thymidine during the last six hours. […] Cells are harvested and incorporated; radioactivity is determined. Inhibition of lymphoproliferation is assessed in percent change in counts per minute from non-drug treated controls. […] (()^3 (H-control thymus cells - H)^3 rapamycin-treated thymus cells)/(()^3 (H-control thymus cells - H)^3 -test compound-treated cells) [formula]

[3] = system: pinch skin graft from male DBA/2 donors transplanted to male BALB/c recipients; assay: pinch skin graft survival time; assay type: in vivo; conditions: DBA/2 donors to BALB/c recipients, treated intraperitoneally; mean ± S.D.
Procedure: as §1
The second in vivo test procedure is designed to determine the survival time of pinch skin graft from male DBA/2 donors transplanted to male BALB/c recipients. The method is adapted from Billingham R.E. and Medawar P.B., J. Exp. Biol. 28:385-402, (1951). Briefly, a pinch skin graft from the donor is grafted on the dorsum of the recipient as a homograft, and an autograft is used as control in the same region. […] Untreated recipients serve as rejection control. The graft is monitored daily and observations are recorded until the graft becomes dry and forms a blackened scab. This is considered as the rejection day. The mean graft survival time (number of days ± S.D.) of the drug treatment group is compared with the control group.

[4] = system: Candida albicans ATCC 38247; assay: plate test procedure for antifungal activity; assay type: cell-based; conditions: strain ATCC 38247
Procedure: (§2) Antifungal activity of the compounds of this invention was measured against 5 strains of Candida albicans using a plate test procedure for measurement of inhibition. The following represents the typical procedure used. The compound to be tested was placed on sterile dried 1/4" plate disks, and allowed to dry. Agar plates were seeded with fungi and allowed to solidify. The impregnated disks were placed on the seeded Agar surface and incubated for the time required for the particular culture. Results are expressed in MIC (µg/ml) to inhibit growth.
(§3) The compounds of Examples 1 and 4 had the following minimal inhibitory concentrations (50%) against 5 strains of Candida albicans.

Candida albicans 3669 = assay: plate test procedure for antifungal activity; assay type: cell-based; conditions: strain 3669
Procedure: as §2, §3

[5] = system: Candida albicans ATCC 38248; assay: plate test procedure for antifungal activity; assay type: cell-based; conditions: strain ATCC 38248
Procedure: as §2, §3

[6] = system: Candida albicans ATCC 38246; assay: plate test procedure for antifungal activity; assay type: cell-based; conditions: strain ATCC 38246
Procedure: as §2, §3

[7] = system: Candida albicans ATCC 10231; assay: plate test procedure for antifungal activity; assay type: cell-based; conditions: strain ATCC 10231
Procedure: as §2, §3

[8] = thymocytes cultured 72 hours with PHA and IL-1, tritiated thymidine incorporation
[9] = Mus musculus, Thymocyte, 72 h, thymocytes cultured 72 hours with PHA and IL-1, tritiated thymidine incorporation

Molecule | PLN Activity relative to Rapamycin ([1]; ip) | IC50 [2, 8] | Skin Graft Mean survival days [3] | IC50 [2, 9] | further results
CO[C@H]1C[C@@H]2CC[C@@H](C)[C@@](O)(O2)C(=O)C(=O)N2CCCC[C@H]2C(=O)O[C@H]([C@H](C)C[C@@H]2CC[C@@H](O)[C@H](OC)C2)CC(=O)[C@H](C)/C=C(\C)[C@@H](O)[C@@H](OC)C(=O)[C@H](C)C[C@H](C)/C=C/C=C/C=C/1C [Rapamycin, reference compound] |  |  |  |  | Percent suppression (PLN) ([1]; 6 mg/kg, p.o., against non-drug treated allogenic control): 86%; IC50 ([2]; Mus musculus, Thymocyte, 72 h): 3.3 nM
CO[C@H]1C[C@@H]2CC[C@@H](C)[C@@](O)(O2)C(O)C(=O)N2CCCC[C@H]2C(=O)O[C@H]([C@H](C)C[C@@H]2CC[C@@H](O)[C@H](OC)C2)CC(O)[C@H](C)/C=C(\C)[C@@H](O)[C@@H](OC)C(=O)[C@H](C)C[C@H](C)/C=C/C=C/C=C/1C (single isomer, unassigned) [Example 3, 15,27-di(deoxo)-15,27-di(hydroxy)rapamycin] | 0.92 ip | 0.84 nM | 9.5 ± 5.5 days |  | 
33-Deoxy-33-hydroxyrapamycin [Example 4] |  | 4.7 nM | 10.0 days |  | PLN Activity relative to Rapamycin ([1]; route not printed in the cell (method: daily p.o. Day 0 to Day 4)): 0.59; Anti-Candida Activity, Minimal Inhibitory Concentration (50%) [4]: 0.03 µg/mL; Anti-Candida Activity, Minimal Inhibitory Concentration (50%) (Candida albicans 3669): 0.25 µg/mL; Anti-Candida Activity, Minimal Inhibitory Concentration (50%) [5]: 0.006 µg/mL; Anti-Candida Activity, Minimal Inhibitory Concentration (50%) [6]: >0.4 µg/mL; Anti-Candida Activity, Minimal Inhibitory Concentration (50%) [7]: 0.05 µg/mL
CO[C@H]1C[C@@H]2CC[C@@H](C)[C@@](O)(O2)C(O)C(=O)N2CCCC[C@H]2C(=O)O[C@H]([C@H](C)C[C@@H]2CC[C@@H](O)[C@H](OC)C2)CC(=O)[C@H](C)/C=C(\C)[C@@H](O)[C@@H](OC)C(=O)[C@H](C)C[C@H](C)/C=C/C=C/C=C/1C (stereo partly shown) [Example 1, 15-Deoxo-15-hydroxyrapamycin] | -0.07 |  | 9.8 ± 1.0 days | 0.58 nM | PLN Activity relative to Rapamycin ([1]; po): -2.47
CO[C@H]1C[C@@H]2CC[C@@H](C)[C@@](O)(O2)C(O)C(=O)N2CCCC[C@H]2C(=O)O[C@H]([C@H](C)C[C@@H]2CC[C@@H](O)[C@H](OC)C2)CC(O)[C@H](C)/C=C(\C)[C@@H](O)[C@@H](OC)C(=O)[C@H](C)C[C@H](C)/C=C/C=C/C=C/1C (single isomer, unassigned) [Example 2, 15,27-di(deoxo)-15,27-di(hydroxy)rapamycin] |  |  | 9.2 ± 0.41 days | 0.67 nM | 

From patent publication EP0512754B1 (AMERICAN HOME PRODUCTS CORPORATION, priority 1991, dated 1992)
